Source: patent US10329309B2, “3-(3H-imidazo[4,5-B]pyridin-2-yl)-1H-pyrazolo[4,3-B]pyridines and therapeutic uses thereof” (Samumed, LLC, priority 2015, dated 2019)

Experiments:
SW480 colon cancer cells = test: Cell viability assay (CellTiter-Blue), four days; format: cell-based; details: Homo sapiens, 96 h; for EC50: CellTiter-Blue cell viability; for inhibition at 10 µM: read-out: percent inhibition at 10 μM (given for EC50 of >10 μM)
Experimental: Representative compounds were screened using the following assay procedure to assess the effect on cell viability as described below.
Each compound was dissolved in DMSO as a 10 mM stock and used to prepare compound source plates. Serial dilution (1:3, 8-point dose-response curves from 10 μM to 0.0045 μM) and compound transfer was performed using the ECHO 550 (Labcyte, Sunnyvale, Calif.) into 96-well clear bottom, black-walled plates (Corning-Costar).
Approximately 2×10^3 SW480 colon cancer cells were seeded into each well and allowed to incubate in the presence or absence of compound for four days at 37° C./5% CO2. Eight replicates of DMSO-treated cells served as controls and cells treated with compound were performed in duplicate.
After incubation, 20 μL of CellTiter-Blue (Promega) was added to each well allowed to incubate for approximately 3 hours. This reagent was a buffered solution which contains resazurin, metabolically active cells were able to reduce rezarurin (blue) into resorufin (pink) which was highly fluorescent. This measured fluorescence was used as a readout for cell viability.
After incubation, the plates were read at Ex 560 nm Em 590 nm (Cytation 3, BioTek). Dose-response curves were generated and EC50 concentration values were calculated using non-linear regression curve fit in the GraphPad Prism (San Diego, Calif.) or Dotmatics' Studies Software (Bishops Stortford, UK). For EC50 of >10 μM, the percent inhibition at 10 μM is provided.

IL-6 (THP-1 cells) = test: Inhibition of IL-6 in LPS-stimulated THP-1 monocytes (HTRF); format: cell-based; details: Homo sapiens; for EC50: LPS 500 ng/mL, IL-6 by HTRF; for inhibition at 10 µM: LPS stimulated, IL-6, at 10 μM, read-out: percent inhibition at 10 μM (given for EC50 of >10 μM)
Experimental: Human monocyte cell line (THP-1 cells; Catalog # TIB-202, ATCC, Manassas, Va.) were cultured in Roswell Park Memorial Institute (RPMI) 1640 Medium (Catalog #21870-100, Buffalo, N.Y.) with 1% L-glutamine, 1% HEPES, 1% Sodium Pyruvate, 2% Sodium Bicarbonate supplemented with 100 units/mL penicillin, 50 μg/mL streptomycin, 2-mercaptoethanol (0.05 mM) [basal medium] and 10% fetal bovine serum (Catalog #16140089, Life Technologies, Carlsbad, Calif.) at 37° C. and 5% CO2.
THP-1 cells were cultured in basal media with 1% FBS for 24 hours before the start of the assay. Each compound was dissolved in DMSO as a 10 mM stock and used to prepare compound source plates. Serial dilution (1:3, 10-point dose-response curves starting from 10 μM) and compound transfer was performed using the ECHO 550 (Labcyte, Sunnyvale, Calif.) into 384-well white low volume assay plates (Greiner Bio-One) with appropriate DMSO backfill for a final DMSO concentration of 0.1%. THP-1 cells were plated at 5000 cells/well in the 384-well plates and incubated at 37° C. for 2 h. 500 ng/mL of LPS was added after 2 hours and cells were incubated for another 22 hours at 37° C. Plates were spun in a centrifuge for 1 minute at […] and a mixture of anti-IL6 XL665, and anti-IL6 Cryptate diluted in reconstitution buffer (Cisbio Inc.) was added to each well. Following incubation for 3 hrs at room temperature, Homogeneous Time-Resolved Fluorescence (HTRF) was measured using the Envision (Perkin Elmer) at 665 nm and […]. The ratio of fluorescence at 665 nm to 620 nm was used as a readout for IL6 quantification. All samples were processed in duplicate. Readings were normalized to DMSO treated cells and normalized activities were utilized for EC50 calculations using the dose-response log (inhibitor) vs. response -variable slope (four parameters) nonlinear regression feature available in GraphPad Prism 5.0 (or Dotmatics). For EC50 of >10 μM, the percent inhibition at 10 μM is provided.

SMILES	EC50 (SW480 colon cancer cells) [µM]	inhibition at 10 µM (SW480 colon cancer cells) [%]	EC50 (IL-6 (THP-1 cells)) [µM]	inhibition at 10 µM (IL-6 (THP-1 cells)) [%]
c1cc(-c2ccc3[nH]nc(-c4nc5c(-c6ccncc6)ccnc5[nH]4)c3n2)ccn1 [Compound 130, 5-(pyridin-4-yl)-3-(7-(pyridin-4-yl)-3H-imidazo[4,5-b]pyridin-2-yl)-1H-pyrazolo [4,3-b]pyridine]	> 10	0	> 10	18.9
O=C(CC1CCNCC1)Nc1cncc(-c2ccc3[nH]nc(-c4nc5c(-c6ccccn6)ccnc5[nH]4)c3n2)c1 [Compound 593, 2-(Piperidin-4-yl)-N-(5-(3-(7-(pyridin-2-yl)-3H-imidazo[4,5-b]pyridin-2-yl)-1H-pyrazolo[4,3-b]pyridin-5-yl)pyridin-3-yl)acetamide]	> 10	16.7	> 10	41.8
CN(C)CCNc1cc(F)cc(-c2ccnc3[nH]c(-c4n[nH]c5ccc(-c6cncc(OCCN7CCCC7)c6)nc45)nc23)c1 [Compound 786, N^1-(3-Fluoro-5-(2-(5-(5-(2-(pyrrolidin-1-yl)ethoxy)pyridin-3-yl)-1H-pyrazolo[4,3-b]pyridin-3-yl)-3H-imidazo[4,5-b]pyridin-7-yl)phenyl)-N^2,N^2-dimethylethane-1,2-diamine]	9.87		> 10	0
O=C(Nc1cncc(-c2ccc3[nH]nc(-c4nc5c(-c6ccccc6F)ccnc5[nH]4)c3n2)c1)C1CCCC1 [Compound 78, N-(5-(3-(7-(2-fluorophenyl)-3H-imidazo[4,5-b]pyridin-2-yl)-1H-pyrazolo [4,3-b]pyridin-5-yl)pyridin-3-yl)cyclopentanecarboxamide]	> 10	12.3	7.92	
COc1cccc(-c2ccnc3[nH]c(-c4n[nH]c5ccc(-c6cncc(OC7CCNCC7)c6)nc45)nc23)c1 [Compound 1025, 3-(7-(3-Methoxyphenyl)-3H-imidazo[4,5-b]pyridin-2-yl)-5-(5-(piperidin-4-yloxy)pyridin-3-yl)-1H-pyrazolo[4,3-b]pyridine]	> 10	15.8	> 10	26.5
Cc1ccc(-c2ccnc3[nH]c(-c4n[nH]c5ccc(-c6cncc(OC7CCCCC7)c6)nc45)nc23)s1 [Compound 735, 5-(5-(Cyclohexyloxy)pyridin-3-yl)-3-(7-(5-methylthiophen-2-yl)-3H-imidazo[4,5-b]pyridin-2-yl)-1H-pyrazolo[4,3-b]pyridine]	> 10	10.9	1.79	
CN1CCN(c2ccnc3[nH]c(-c4n[nH]c5ccc(-c6cncnc6)nc45)nc23)CC1 [Compound 251, 3-(7-(4-Methylpiperazin-1-yl)-3H-imidazo[4,5-b]pyridin-2-yl)-5-(pyrimidin-5-yl)-1H-pyrazolo[4,3-b]pyridine]	> 10	0	> 10	8.3
O=C(Nc1cncc(-c2ccc3[nH]nc(-c4nc5cccnc5[nH]4)c3n2)c1)C1CCCCC1 [Compound 275, N-(5-(3-(3H-Imidazo[4,5-b]pyridin-2-yl)-1H-pyrazolo[4,3-b]pyridin-5-yl)pyridin-3-yl)cyclohexanecarboxamide]	> 10	2.6	> 10	33.1
C1=C(c2ccc3[nH]nc(-c4nc5c(-c6ccc7c(c6)OCO7)ccnc5[nH]4)c3n2)CCNC1 [Compound 1109, 3-(7-(Benzo[d][1,3]dioxol-5-yl)-3H-imidazo[4,5-b]pyridin-2-yl)-5-(1,2,3,6-tetrahydropyridin-4-yl)-1H-pyrazolo[4,3-b]pyridine]	> 10	10.9	> 10	20.5
c1cnc2[nH]c(-c3n[nH]c4ccc(-c5cn[nH]c5)nc34)nc2c1 [Compound 651, 3-(3H-Imidazo[4,5-b]pyridin-2-yl)-5-(1H-pyrazol-4-yl)-1H-pyrazolo[4,3-b]pyridine]	> 10	3.1	> 10	0
CS(=O)(=O)NCc1cc(F)cc(-c2ccnc3[nH]c(-c4n[nH]c5ccc(-c6cncc(NC(=O)c7ccccc7)c6)nc45)nc23)c1 [Compound 487, N-(5-(3-(7-(3-Fluoro-5-(methylsulfonamidomethyl)phenyl)-3H-imidazo[4,5-b]pyridin-2-yl)-1H-pyrazolo[4,3-b]pyridin-5-yl)pyridin-3-yl)benzamide]	> 10	0.6	> 10	0
COc1cccc(-c2ccnc3[nH]c(-c4n[nH]c5ccc(-c6cncc(O)c6)nc45)nc23)c1 [Compound 1030, 5-(3-(7-(3-Methoxyphenyl)-3H-imidazo[4,5-b]pyridin-2-yl)-1H-pyrazolo [4,3-b]pyridin-5-yl)pyridin-3-ol]	> 10	3	> 10	40.9
CN(C)CCOc1cncc(-c2ccc3[nH]nc(-c4nc5c(-c6cccs6)ccnc5[nH]4)c3n2)c1 [Compound 707, N,N-Dimethyl-2-((5-(3-(7-(thiophen-2-yl)-3H-imidazo[4,5-b]pyridin-2-yl)-1H-pyrazolo[4,3-b]pyridin-5-yl)pyridin-3-yl)oxy)ethan-1-amine]	3.87		> 10	35.1
c1cc(-c2ccnc3[nH]c(-c4n[nH]c5ccc(-c6cncc(OC7CCNCC7)c6)nc45)nc23)ccn1 [Compound 576, 5-(5-(Piperidin-4-yloxy)pyridin-3-yl)-3-(7-(pyridin-4-yl)-3H-imidazo[4,5-b]pyridin-2-yl)-1H-pyrazolo[4,3-b]pyridine]	> 10	1.7	> 10	38.1
Cc1ncc(-c2ccc3[nH]nc(-c4nc5c(-c6ccoc6)ccnc5[nH]4)c3n2)n1C [Compound 685, 5-(1,2-Dimethyl-1H-imidazol-5-yl)-3-(7-(furan-3-yl)-3H-imidazo[4,5-b]pyridin-2-yl)-1H-pyrazolo[4,3-b]pyridine]	4.19		> 10	24.3
Oc1cncc(-c2ccc3[nH]nc(-c4nc5cccnc5[nH]4)c3n2)c1 [Compound 661, 5-(3-(3H-Imidazo[4,5-b]pyridin-2-yl)-1H-pyrazolo[4,3-b]pyridin-5-yl) pyridin-3-ol]	> 10	13	> 10	27.9
Cc1cn(-c2ccnc3[nH]c(-c4n[nH]c5ccc(-c6cncc(N7CC(N)C7)n6)nc45)nc23)cn1 [Compound 622, 1-(6-(3-(7-(4-Methyl-1H-imidazol-1-yl)-3H-imidazo[4,5-b]pyridin-2-yl)-1H-pyrazolo[4,3-b]pyridin-5-yl)pyrazin-2-yl)azetidin-3-amine]	> 10	4.7	0.92	
Oc1cncc(-c2ccc3[nH]nc(-c4nc5c(-c6cccnc6)ccnc5[nH]4)c3n2)c1 [Compound 565, 5-(3-(7-(Pyridin-3-yl)-3H-imidazo[4,5-b]pyridin-2-yl)-1H-pyrazolo[4,3-b]pyridin-5-yl)pyridin-3-ol]	> 10	5.9	9.48	
CN1CCN(c2ccnc3[nH]c(-c4n[nH]c5ccc(-c6cncc(NC(=O)C7CCCC7)c6)nc45)nc23)CC1 [Compound 246, N-(5-(3-(7-(4-Methylpiperazin-1-yl)-3H-imidazo[4,5-b]pyridin-2-yl)-1H-pyrazolo[4,3-b]pyridin-5-yl)pyridin-3-yl)cyclopentanecarboxamide]	> 10	0	> 10	15.7
